Experimental data taken from patent US20170096443A1, “PLATINUM(IV) COMPOUNDS AND METHODS OF MAKING AND USING SAME” (UNIVERSITY OF GEORGIA RESEARCH FOUNDATION, INC., priority 2014, published 2017).

What was measured:
[1] = test system: PC3 cells; assay: MTT cytotoxicity assay in PC3 cells; assay type: cell-based, Human; settings: 72 hours incubation, read-out: IC50 in prostate cancer cells, PC3
Protocol: (§1) Cisplatin and ADIBO-COOH were used as controls. […] Cell Lines and Cell Culture. […] Cytotoxicity Analysis of Platin-CLK by MTT Assay. […] The media was changed and increasing concentrations of each compound was added. […] Final working solutions were prepared in culture media (RPMI) by keeping total DMSO percentage <1%. These were then incubated for 72 hours. […] The IC50 values were reported at ±99% confidence intervals.

[2] = test system: DU145 cells; assay: MTT cytotoxicity assay in DU145 cells; assay type: cell-based, Human; settings: 72 hours incubation, read-out: IC50 in prostate cancer cells, DU145
Protocol: as §1

Structure (SMILES)	IC50 [1]	IC50 [2]
O=C(O)CCC(=O)NCCC(=O)N1Cc2ccccc2C#Cc2ccccc21 [ADIBO-COOH]	> 200 µM	284 ± 72 µM
N.N.[Cl][Pt][Cl] [Cisplatin, Cis-diamminedichloroplatinum(II)]	12 ± 2 µM	6 ± 0.9 µM
